Measured values from patent US12465602B2, “Use of an opioid molecule for treating dry eye and eyes suffering from allergies” (H4 ORPHAN PHARMA, priority 2019, dated 2025).
Where two headings read alike, the source gives them in different places.

What was measured:
non-mutated CFTR = molecular target: T1, non-mutated CFTR (Homo sapiens, UniProt P13569); assay: Ussing chamber short-circuit current on lacrimal gland epithelial cells expressing non-mutated CFTR; format: cell-based
T1 construct: endogenous in cells; host or cells: human glandular (lacrimal gland) epithelial cells, polarised on Snapwell filters
Excerpt: To study this action on the modulation of CFTR, the inventors have used the Ussing chamber method, invented by the Danish Hans H. Ussing at the end of the 1950s. This technique allows studying ionic exchanges through an epithelium, as they allow maintaining the tissue of interest in survival for a few hours under controlled conditions of temperature and medium. The positioning of the tissue between two half-chambers allows defining an apical compartment (corresponding to the lumen of the organ) and a basolateral compartment (corresponding to the blood compartment) and studying the exchanges between these two compartments via the tissue.
This technique is commonly used and it is particularly well-suited for a pharmacological approach of ionic transports and to search for molecules of therapeutic interest in the context of ionic secretions from epithelial cells. It consists in measuring the transepithelial current (called short-circuit and denoted Ise). Ise is expressed in amperes relative to the unit surface area of the epithelium (Ise in μA/cm2). The cells are cultured on a porous filter for 10 to 15 days at the liquid-liquid then air-liquid interface in order to mimic conditions close to in vivo. The transepithelial resistance is regularly measured during the culture. The higher this resistance (several hundred ohms), the more the epithelial tissue is contiguous, polarised and therefore tight. At the Air (apical side)—Liquid (basolateral side) interface, the epithelial cells polarise and form a tight mat that can be studied with the Ussing chamber technique. We have used a system with 6 vats from Physiologie Instrument@ enabling 6 experiments in parallel.
The inventors have prepared a 100 μM stock solution in DMSO.

basophils = assay: Basophil activation test (Flow CAST kit), CD63 expression by flow cytometry after anti-FcεRI stimulation; format: cell-based, human; conditions: noscapine 10 μM, whole blood, FIG. 9
Excerpt: These two cells intervene in the IgE-dependent allergic reaction; they express the high-affinity IgE receptor. Nevertheless, the mediators released by these cells during this activation are different for some of them. Moreover, basophils and especially mast cells intervene in innate immunity. Thus, basophils and mast cells have many characteristics in common and more particularly, the secretion of IL4 and IL13 which are known to induce the stimulation of collagen synthesis and the proliferation of fibroblasts responsible for fibrosis. Fibrosis can affect the Meibomian glands in dry eye and allergic eye. […]
It is designed for the in vitro diagnosis of the expression of the CD63 marker as a surface marker of activated basophils. The test is carried out on whole blood; flow cytometry allows quantifying the expression of CD63 at the surface of activated basophils. […]
This granularity may be due to irregularities inside or at the surface of the cells or to the density of the organelles that compose it (acess.ens-lyon.fr). Afterwards, fluorescence markers allow better characterising the different cell subpopulations (these markers are coupled with the differentiation clusters). […] The latter has been analysed in order to observe the expected results in the absence of stimulation and therefore of degranulation. […]

[1] = cited from earlier work

T1 sequence (P13569 whole entry, change not shown): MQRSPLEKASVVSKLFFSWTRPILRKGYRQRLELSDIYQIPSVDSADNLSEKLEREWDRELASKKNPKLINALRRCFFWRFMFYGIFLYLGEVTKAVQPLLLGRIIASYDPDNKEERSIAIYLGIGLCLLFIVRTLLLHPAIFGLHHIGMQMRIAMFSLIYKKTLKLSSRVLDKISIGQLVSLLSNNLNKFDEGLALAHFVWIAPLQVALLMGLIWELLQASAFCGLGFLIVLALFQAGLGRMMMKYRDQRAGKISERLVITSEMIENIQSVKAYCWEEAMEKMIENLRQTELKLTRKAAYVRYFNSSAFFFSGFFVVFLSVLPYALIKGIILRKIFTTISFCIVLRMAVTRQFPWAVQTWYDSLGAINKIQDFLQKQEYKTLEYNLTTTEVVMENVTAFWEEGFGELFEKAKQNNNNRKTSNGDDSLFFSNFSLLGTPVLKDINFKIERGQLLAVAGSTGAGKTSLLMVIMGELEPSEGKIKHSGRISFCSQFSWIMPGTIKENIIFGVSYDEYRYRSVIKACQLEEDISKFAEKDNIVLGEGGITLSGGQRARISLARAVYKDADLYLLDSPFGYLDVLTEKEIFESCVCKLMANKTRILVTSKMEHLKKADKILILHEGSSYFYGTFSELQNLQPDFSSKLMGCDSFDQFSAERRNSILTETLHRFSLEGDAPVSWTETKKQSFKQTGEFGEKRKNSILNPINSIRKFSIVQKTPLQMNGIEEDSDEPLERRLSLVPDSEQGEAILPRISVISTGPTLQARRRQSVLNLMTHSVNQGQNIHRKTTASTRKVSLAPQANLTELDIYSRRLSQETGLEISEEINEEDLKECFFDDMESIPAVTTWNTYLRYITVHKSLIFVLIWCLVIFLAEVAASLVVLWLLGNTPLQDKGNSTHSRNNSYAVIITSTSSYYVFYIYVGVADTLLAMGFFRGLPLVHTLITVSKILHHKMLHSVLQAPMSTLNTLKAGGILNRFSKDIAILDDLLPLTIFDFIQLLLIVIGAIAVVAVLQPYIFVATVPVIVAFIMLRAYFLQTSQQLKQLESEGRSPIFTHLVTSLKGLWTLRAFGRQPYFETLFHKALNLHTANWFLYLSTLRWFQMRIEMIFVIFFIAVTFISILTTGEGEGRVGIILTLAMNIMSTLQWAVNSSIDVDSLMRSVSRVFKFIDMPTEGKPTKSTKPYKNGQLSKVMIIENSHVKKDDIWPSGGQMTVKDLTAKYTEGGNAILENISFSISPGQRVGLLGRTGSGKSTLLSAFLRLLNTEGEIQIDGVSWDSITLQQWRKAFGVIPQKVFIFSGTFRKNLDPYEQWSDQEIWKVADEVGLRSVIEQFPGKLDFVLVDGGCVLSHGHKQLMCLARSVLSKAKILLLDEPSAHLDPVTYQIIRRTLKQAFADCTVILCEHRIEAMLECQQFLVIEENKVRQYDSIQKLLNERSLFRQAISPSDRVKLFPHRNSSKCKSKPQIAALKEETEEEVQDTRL

| Compound | effect of Inh172 on cellular potential (non-mutated CFTR; Inh172 10 μM, first series (apical side)) | effect of Inh172 on cellular potential, second series (non-mutated CFTR; Inh172 10 μM, lacrimal gland epithelial cells) | short-circuit current differential after addition of noscapine, apical side (non-mutated CFTR; 10 μM noscapine, non-mutated epithelial cells, apical side, switches from 16) | short-circuit current differential after addition of noscapine, second series (non-mutated CFTR; 10 μM noscapine, non-mutated lacrimal gland epithelial cells, printed apical side, switches from 6.5) | EC50 (non-mutated CFTR; apical pole, FIG. 2, read-out: EC50 activity for the apical pole) [µM] | EC50 (non-mutated CFTR; basal pole, FIG. 3, read-out: EC50 for the basal pole) [µM] | inhibition of basophil degranulation caused by anti-FcεRI antibody (CD63+ CCR3+) (basophils) | solubility in organic solvents ([1]; benzene and acetone) | solubility in water ([1]; water) |
| --- | --- | --- | --- | --- | --- | --- | --- | --- | --- |
| O=C(O)c1ccc(C=C2SC(=S)N(c3cccc(C(F)(F)F)c3)C2=O)cc1 [Inh172] | completely blocks the cellular potential | completely blocks the cellular potential | – | – | – | – | – | – | – |
| COc1ccc2c(c1OC)C(=O)O[C@@H]2[C@H]1c2c(cc3c(c2OC)OCO3)CCN1C [noscapine, (3S)-6,7-dimethoxy-3-[(5R)-4-methoxy-6-methyl-7,8-dihydro-5H-[1,3]dioxolo[4,5-g]isoquinolin-5-yl]-3H-2-benzofuran-1-one] | – | – | more than 20 μA/cm2 | more than 7.5 μA/cm2 | 3.42 | 4.87 | blocks the activation of basophil degranulation | soluble in benzene and acetone | Insoluble in water |
